Values of other authors, collected in PMC9549030, “Structural basis for specific inhibition of the deubiquitinase UCHL1” (Nature Communications, 2022).

Experiments:
[1] = tested on: Cathepsin K; conditions: ref SI-Ref-7; cited from earlier work
[2] = target: Caspase 1; parameters: method as in SI-Ref-5; conditions: ref SI-Ref-5; cited from earlier work
[3] = target: Prolyl oligopeptidase; parameters: method as in SI-Ref-8; conditions: ref SI-Ref-8; cited from earlier work

Compound: CC(C)(F)C[C@H](N[C@@H](c1ccc(-c2ccc(S(C)(=O)=O)cc2)cc1)C(F)(F)F)C(=O)NC1(C#N)CC1 [Odanacatib]
- IC50 [1]: 0.2 nM

Compound: CC(C)(C)[C@H](NC(=O)c1ccc(N)c(Cl)c1)C(=O)N1CCC[C@H]1C(=O)N[C@H](C#N)CC(=O)O [ML132]
- IC50 [2]: 0.023 nM

Compound: N#C[C@@H]1CCCN1C(=O)[C@@H]1CCCN1C(=O)CCCc1ccccc1 [KYP-2047]
- IC50 [3]: 3.9 nM
